Source: BindingDB's records for doi:10.1021/jm0104567 (Takeda Chemical Industries, 2002)
Counter-ions that a name gives are not always drawn.

Experiment: In vitro inhibition of acid induced swelling in rat platelets by 50% as a measure of NHE-1 inhibition

| SMILES | IC50 |
| --- | --- |
| Cc1ccnc2c1C(=NN=C(N)N)C[C@@H](c1cc(Cl)sc1Cl)C2 [(R)-N-[7-(2,5-dichloro-3-thienyl)-4-methyl-(7R)-5,6,7,8-tetrahydro-5-quinolinyliden(imine)]iminomethanediamine 2CH3SO3H] | 0.033 µM |
| NC(N)=NN=C1CC(c2ccccc2)Cc2ncccc21 (stereo not drawn) [N-(7-phenyl-5,6,7,8-tetrahydro-5-quinolinyliden(imine))iminomethanediamine. dihydrochloride] | 0.41 µM |
| Cc1ccnc2c1C(=NN=C(N)N)CC(c1ccsc1Cl)C2 (stereo not drawn) [N-[7-(2-chloro-3-thienyl)-4-methyl-5,6,7,8-tetrahydro-5-quinolinyliden(imine)]iminomethanediamine. dihydrochloride] | 0.022 µM |
| Cc1ccnc2c1C(=NN=C(N)N)CC(c1sc(Cl)cc1Cl)C2 (stereo not drawn) [N-[7-(3,5-dichloro-2-thienyl)-4-methyl-5,6,7,8-tetrahydro-5-quinolinyliden(imine)]iminomethanediamine. dihydrochloride] | 0.049 µM |
| Cc1n[nH]c2c1C(=NN=C(N)N)CC(c1ccccc1Cl)C2 (stereo not drawn) [N-[6-(2-chlorophenyl)-3-methyl-4,5,6,7-tetrahydro-1H-4-indazolyliden(imine)]iminomethanediamine. dihydrochloride] | 0.055 µM |
| Cc1ccc2c(n1)CC(c1ccccc1)CC2=NN=C(N)N (stereo not drawn) [N-(2-methyl-7-phenyl-5,6,7,8-tetrahydro-5-quinolinyliden(imine))iminomethanediamine. dihydrochloride] | 2.8 µM |
| COc1ccnc2c1C(=NN=C(N)N)CC(c1ccccc1Cl)C2 (stereo not drawn) [N-[7-(2-chlorophenyl)-4-methoxy-5,6,7,8-tetrahydro-5-quinolinyliden(imine)]iminomethanediamine. 2CH3SO3H] | 0.05 µM |
| Cc1cnnc2c1C(=NN=C(N)N)CC(c1ccccc1Cl)C2 (stereo not drawn) [N-[7-(2-chlorophenyl)-4-methyl-5,6,7,8-tetrahydro-5-cinnolinyliden(imine)]iminomethanediamine. dihydrochloride] | 0.026 µM |
| Cc1ccnc2c1C(=NN=C(N)N)C[C@H](c1cc(Cl)sc1Cl)C2 [(S)-N-[7-(2,5-dichloro-3-thienyl)-4-methyl-(7S)-5,6,7,8-tetrahydro-5-quinolinyliden(imine)]iminomethanediamine 2CH3SO3H] | 0.017 µM |
| Cc1ccnc2c1C(=NN=C(N)N)C[C@H](c1ccccc1Cl)C2 [N-[7-(2-chlorophenyl)-4-methyl-(7S)-5,6,7,8-tetrahydro-5-quinolinyliden(imine)]iminomethanediamine 2CH3SO3H] | 0.02 µM |
| NC(N)=NN=C1CC(c2ccccc2)Cc2[nH]ccc21 (stereo not drawn) [N-(6-phenyl-4,5,6,7-tetrahydro-1H-4-indolyliden(imine))iminomethanediamine. dihydrochloride] | 3.5 µM |
| Cc1ccnc2c1C(=NN=C(N)N)CC(c1ccccc1Br)C2 (stereo not drawn) [N-[7-(2-bromophenyl)-4-methyl-5,6,7,8-tetrahydro-5-quinolinyliden(imine)]iminomethanediamine. dihydrochloride] | 0.056 µM |
| Cc1ccnc2c1C(=NN=C(N)N)CC(c1ccccc1)C2 (stereo not drawn) [N-(4-methyl-7-phenyl-5,6,7,8-tetrahydro-5-quinolinyliden(imine))iminomethanediamine. dihydrochloride] | 0.091 µM |
| Cc1ccnc2c1C(=NN=C(N)N)C[C@@H](c1ccccc1Cl)C2 [N-[7-(2-chlorophenyl)-4-methyl-(7S)-5,6,7,8-tetrahydro-5-quinolinyliden(imine)]iminomethanediamine 2CH3SO3H] | 0.7 µM |
| Cc1ccnc2c1C(=NN=C(N)N)CC(c1ccccc1Cl)C2 (stereo not drawn) [N-[7-(2-chlorophenyl)-4-methyl-5,6,7,8-tetrahydro-5-quinolinyliden(imine)]iminomethanediamine. dihydrochloride] | 0.04 µM |
| Cc1ccnc2c1C(=NN=C(N)N)CC(c1ccc(Cl)cc1)C2 (stereo not drawn) [N-[7-(4-chlorophenyl)-4-methyl-5,6,7,8-tetrahydro-5-quinolinyliden(imine)]iminomethanediamine. dihydrochloride] | 0.55 µM |
| Cc1ncnc2c1C(=NN=C(N)N)CC(c1ccccc1Cl)C2 (stereo not drawn) [N-[7-(2-chlorophenyl)-4-methyl-5,6,7,8-tetrahydro-5-quinazolinyliden(imine)]iminomethanediamine. dihydrochloride] | 0.24 µM |

Next, values leading:

| IC50 | SMILES |
| --- | --- |
| 0.057 µM | Cc1ccccc1C1CC(=NN=C(N)N)c2c(C)ccnc2C1 (stereo not drawn) [N-[4-methyl-7-(2-methylphenyl)-5,6,7,8-tetrahydro-5-quinolinyliden(imine)]iminomethanediamine. dihydrochloride] |
| 0.075 µM | CC(C)c1ccc(C(=O)NC(=N)N)cc1S(C)(=O)=O |
| 0.2 µM | Cc1cccc2c1C(=NN=C(N)N)CC(c1ccccc1Cl)O2 (stereo not drawn) [N-[2-(2-chlorophenyl)-5-methyl-3,4-dihydro-2H-4-chromenyliden(imine)]iminomethanediamine. hydrochloride] |
| 2.3 µM | COc1cccc(C=NNC(=N)N)c1OCc1ccccc1 [N-[2-(2-benzyloxy-3-methoxyphenyl)-(E)-1-meth(imine)]iminomethanediamine] |
| 6.4 µM | NC(N)=NN=c1cc(-c2ccccc2)oc2ccccc12 [N-(2-phenyl-4H-4-chromenyliden(imine))iminomethanediamine. hydrochloride] |
| 0.36 µM | Cc1cccc2oc(-c3ccccc3Cl)cc(=NN=C(N)N)c12 [N-[2-(2-chlorophenyl)-5-methyl-4H-4-chromenylidenmethyl]iminomethanediamine. dihydrochloride] |
| 0.058 µM | Cc1ccnc2c1C(=NN=C(N)N)CC(c1cc(Cl)ccc1Cl)C2 (stereo not drawn) [N-[7-(2,5-dichlorophenyl)-4-methyl-5,6,7,8-tetrahydro-5-quinolinyliden(imine)]iminomethanediamine. dihydrochloride] |
| 3.3 µM | NC(N)=NN=C1CC(c2ccccc2)Oc2ccccc21 (stereo not drawn) [N-(2-phenyl-3,4-dihydro-2H-4-chromenyliden(imine))iminomethanediamine. hydrochloride] |
| 0.039 µM | Cc1ccnc2c1C(=NN=C(N)N)CC(c1cc(F)ccc1F)C2 (stereo not drawn) [N-[7-(2,5-difluorophenyl)-4-methyl-5,6,7,8-tetrahydro-5-quinolinyliden(imine)]iminomethanediamine. dihydrochloride] |
| 0.061 µM | Cc1ccnc2c1C(=NN=C(N)N)CC(c1cccc(Cl)c1)C2 (stereo not drawn) [N-[7-(3-chlorophenyl)-4-methyl-5,6,7,8-tetrahydro-5-quinolinyliden(imine)]iminomethanediamine. dihydrochloride] |
| 0.014 µM | Cc1ccc(F)cc1[C@H]1CC(=NN=C(N)N)c2c(C)ccnc2C1 [(S)-N-[7-(5-fluoro-2-methylphenyl)-4-methyl-(7S)-5,6,7,8-tetrahydro-5-quinolinyliden(imine)]iminomethanediamine 2CH3SO3H] |
| 0.1 µM | COc1ccccc1C1CC(=NN=C(N)N)c2c(C)ccnc2C1 (stereo not drawn) [N-[7-(2-methoxyphenyl)-4-methyl-5,6,7,8-tetrahydro-5-quinolinyliden(imine)]iminomethanediamine. dihydrochloride] |
| 0.11 µM | Cc1ccnc2c1C(=NN=C(N)N)CC(c1ccco1)C2 (stereo not drawn) [N-[7-(2-furyl)-4-methyl-5,6,7,8-tetrahydro-5-quinolinyliden(imine)]iminomethanediamine. dihydrochloride] |
| 0.34 µM | Cc1ccnc2c1C(=NN=C(N)N)CC(c1ccc(Cl)cc1Cl)C2 (stereo not drawn) [N-[7-(2,4-dichlorophenyl)-4-methyl-5,6,7,8-tetrahydro-5-quinolinyliden(imine)]iminomethanediamine. dihydrochloride] |
| 0.082 µM | Cc1coc2c1C(=NN=C(N)N)CC(c1ccccc1Cl)C2 (stereo not drawn) [N-[6-(2-chlorophenyl)-3-methyl-4,5,6,7-tetrahydrobenzo[b]furan-4-yliden(imine)]iminomethanediamine. hydrochloride] |
| 0.03 µM | Cc1ccnc2c1C(=NN=C(N)N)CC(c1ccsc1)C2 (stereo not drawn) [N-[4-methyl-7-(3-thienyl)-5,6,7,8-tetrahydro-5-quinolinyliden(imine)]iminomethanediamine. dihydrochloride] |
| 0.18 µM | Cc1cc(C)c2c(n1)CC(c1ccccc1)CC2=NN=C(N)N (stereo not drawn) [N-(2,4-dimethyl-7-phenyl-5,6,7,8-tetrahydro-5-quinolinyliden(imine))iminomethanediamine. dihydrochloride] |
| 0.047 µM | Cc1ccnc2c1C(=NN=C(N)N)CC(c1cccs1)C2 (stereo not drawn) [N-[4-methyl-7-(2-thienyl)-5,6,7,8-tetrahydro-5-quinolinyliden(imine)]iminomethanediamine. dihydrochloride] |
| 0.034 µM | Cc1ccccc1C1CC(=NN=C(N)N)c2c(C)c[nH]c2C1 (stereo not drawn) [N-[3-methyl-6-(2-methylphenyl)-4,5,6,7-tetrahydro-1H-4-indolyliden(imine)]iminomethanediamine. dihydrochloride] |
| 0.037 µM | Cc1ccc(F)cc1C1CC(=NN=C(N)N)c2c(C)ccnc2C1 (stereo not drawn) [N-[7-(5-fluoro-2-methylphenyl)-4-methyl-5,6,7,8-tetrahydro-5-quinolinyliden(imine)]iminomethanediamine. dihydrochloride] |
| 0.089 µM | Cc1ccnc2c1C(=NN=C(N)N)CC(c1cccc(Cl)c1Cl)C2 (stereo not drawn) [N-[7-(2,3-dichlorophenyl)-4-methyl-5,6,7,8-tetrahydro-5-quinolinyliden(imine)]iminomethanediamine. dihydrochloride] |
